Results as given in patent publication US20240327359A1, “3-ISOXAZOLIDINONE COMPOUND, PREPARATION METHOD, HERBICIDAL COMPOSITION AND APPLICATION THEREOF” (QINGDAO KINGAGROOT CHEMICAL COMPOUND CO., LTD., priority 2021, published 2024).

How the values were obtained:
Test in all cases: Activity test of the compositions, post-emergence treatment by foliage spray
Format in all cases: in vivo
Lolium multiflorum = settings: foliage (F)
Protocol: (§1) The desired active ingredient B was purchased from a reagent company or synthesized by a known method. The technical materials were all dissolved in acetone and diluted with an aqueous solution containing 0.10% emulsifier Tween-80 which were to be used immediately after dilution.
(§2) Weeds were cultivated by a pot culture method. […] Weed seeds with plump and uniform grains were selected, soaked in lukewarm water at 25° C. for 6 hours, and germinated in a 28° C. biochemical incubator (in darkness). The weed seeds that had just germinated were evenly placed on the surface of the soil and then covered with 0.5-1 cm soil according to the sizes of seeds.
(§3) The culture was carried out in a controllable sunlight greenhouse at 20 to 30° C., in natural light, and with relative humidity of 57% to 72%.
(§4) Each treatment was repeated 4 times. Four pots with 20 weed seeds per pot were treated each time.
(§5) The agents were used for only once in total in the experiment. In the stage of 1.5-2 leaves, the weeds were thinned out to maintain 10 weeds per pot. Ten weeds were kept in each treatment, then continued to be cultured until Echinochloa crus-galli var. zelayensis reached the stage of 2-3 leaves, Cirsium setosum reached the stage of 5-6 leaves, Galium aparine reached the stage of 3-4 whorl leaves, Amaranthus retroflexus reached the stage of 3-5 leaves, Echinochloa crusgalli, Lolium multiflorum and Digitaria sanguinalis reached the stage of 3 leaves with one leaf not fully expanding for further treatment.
(§6) The well-cultured test materials were evenly placed on a platform with an area of 0.5 m^2, and solution of agents was sprayed on the stems and leaves thereof by the 3WP-2000-type walking spray tower at a dosage of 450 kg/ha and at a spray pressure of 0.3 MPa. After all the solution was sprayed, the valve was closed. After 30 seconds, the door of the spray tower was opened, and the nutritional bowl was taken out. Then the valve was opened, and the spray tube was cleaned by spraying 50 ml of water. After the treatment, the weeds were routinely cultured in a greenhouse.
(§7) A method for investigating absolute numbers was employed. Whole seedlings of survival weeds were cut off with a blade along the soil surface, and the fresh weight of the weeds was weighed with an analytical balance. For dead weeds, the fresh weight thereof was zero.
(§8) The investigation was performed 21 days after the treatment for only once in total.

Galium aparine = settings: foliage (F)
Protocol: as §1, §2, §4, §5, §6, §7, §8

Digitaria sanguinalis = test system: Digitaria sanguinalis
Protocol: as §1, §2, §3, §4, §5, §6, §7, §8

Echinochloa crusgalli = settings: foliage (F)
Protocol: as §1, §2, §3, §4, §5, §6, §7, §8

Amaranthus retroflexus = settings: foliage (F)
Protocol: as §1, §2, §3, §4, §5, §6, §7, §8

[1] = test system: Echinochloa crus-galli var. zelayensis; settings: Echinochloa crusgalli var. zelayensis, foliage (F)
Protocol: as §1, §2, §3, §4, §5, §6, §7, §8

In the case of C[C@@H](Oc1nc(F)c(Cl)c(N)c1Cl)C(=O)OCC1CCCO1 (stereo partly shown), the “Control effect (%) of B applied alone (B)” value (from here on “Control effect (%)”) (Lolium multiflorum; B 8 g a.i./mu) is reported as 30.7% and the “Control effect (%)” value (Lolium multiflorum; B 16 g a.i./mu) is reported as 44.1%.

Cc1cc(Cl)ccc1OCC(=O)O [MCPA] was tested, and the “Control effect (%)” value (Galium aparine; B 20 g a.i./mu) was 33.1% and the “Control effect (%)” value (Galium aparine; B 40 g a.i./mu) was 46.7%.

With COc1cc(OC)nc(NC(=O)NS(=O)(=O)c2ncccc2C(=O)N(C)C)n1 [nicosulfuron] the “Control effect (%)” value (Digitaria sanguinalis; foliage (F), B 1 g a.i./mu) was 29.7% and the “Control effect (%)” value (Digitaria sanguinalis; foliage (F), B 2 g a.i./mu) was 47.6%.

In the case of COc1c(Cl)ccc(-c2cc(N)c(Cl)c(C(=O)O)n2)c1F [halauxifen], the “Control effect (%)” value (Galium aparine; B 0.2 g a.i./mu) is reported as 26.4% and the “Control effect (%)” value (Galium aparine; B 0.4 g a.i./mu) is reported as 37.2%.

For COc1c(Cl)ccc(Cl)c1C(=O)O [dicamba], the “Control effect (%)” value (Galium aparine; B 4 g a.i./mu) was 28.6% and the “Control effect (%)” value (Galium aparine; B 8 g a.i./mu) was 39.7%.

With CS(=O)(=O)c1ccc(C(=O)C2C(=O)CCCC2=O)c([N+](=O)[O-])c1 [mesotrione] the “Control effect (%)” value (Digitaria sanguinalis; foliage (F), B 2.5 g a.i./mu) was 38.6% and the “Control effect (%)” value (Digitaria sanguinalis; foliage (F), B 5 g a.i./mu) was 52.1%.

Cc1cc(C)n(Cc2c(S(C)(=O)=O)ccc(C(=O)c3c(C)nn(C)c3OC(=O)c3cn(C)nc3C)c2Cl)n1 [tripyrasulfone] was tested, and the “Control effect (%)” value (Echinochloa crusgalli; B 4 g a.i./mu) was 26.7% and the “Control effect (%)” value (Echinochloa crusgalli; B 8 g a.i./mu) was 46.1%.

CCCN(CCC)C(=O)SCc1ccccc1 [prosulfocarb] was tested, and the “Control effect (%)” value (Galium aparine; B 50 g a.i./mu) was 40.5% and the “Control effect (%)” value (Galium aparine; B 100 g a.i./mu) was 56.1%.

CS(=O)(=O)NC(=O)c1cc(Oc2ccc(C(F)(F)F)cc2Cl)ccc1[N+](=O)[O-] [fomesafen] was tested, and the “Control effect (%)” value (Amaranthus retroflexus; B 4 g a.i./mu) was 38.1% and the “Control effect (%)” value (Amaranthus retroflexus; B 8 g a.i./mu) was 47.5%.

In the case of COC(=O)CCNC(=O)C(C)Sc1cc(-n2c(=O)cc(C(F)(F)F)n(C)c2=O)c(F)cc1Cl (stereo not shown) [tiafenacil], the “Control effect (%)” value (Echinochloa crusgalli; B 0.5 g a.i./mu) is reported as 33.4% and the “Control effect (%)” value (Echinochloa crusgalli; B 1 g a.i./mu) is reported as 45.9%.

O=C(O)c1c(Cl)ccc2cc(Cl)cnc12 [quinclorac] was tested, and the “Control effect (%)” value ([1]; B 4 g a.i./mu) was 22.5% and the “Control effect (%)” value ([1]; B 8 g a.i./mu) was 41.4%.

In the case of COc1cnc(OC)n2nc(NS(=O)(=O)c3c(OCC(F)F)cccc3C(F)(F)F)nc12 [penoxsulam], the “Control effect (%)” value (Echinochloa crusgalli; B 0.5 g a.i./mu) is reported as 52.7% and the “Control effect (%)” value (Echinochloa crusgalli; B 1 g a.i./mu) is reported as 61.7%.

COc1cc(OC)nc(Oc2cccc(Oc3nc(OC)cc(OC)n3)c2C(=O)O)n1 [bispyribac] was tested, and the “Control effect (%)” value (Echinochloa crusgalli; B 0.6 g a.i./mu) was 30.7% and the “Control effect (%)” value (Echinochloa crusgalli; B 1.2 g a.i./mu) was 42. %.

Cc1ccc2c(c1)[C@H](Nc1nc(N)nc(C(C)F)n1)[C@@H](C)C2 (stereo partly shown) [indaziflam] was tested, and the “Control effect (%)” value (Digitaria sanguinalis; foliage treatment (F), B at 0.8 g a.i./mu, 21 days) was 36.4% and the “Control effect (%)” value (Digitaria sanguinalis; foliage treatment (F), B at 1.6 g a.i./mu, 21 days) was 52.1%.

With COC(=O)c1ccc(CNS(C)(=O)=O)cc1S(=O)(=O)NC(=O)Nc1nc(OC)cc(OC)n1 [mesosulfuron-methyl] the “Control effect (%)” value (Lolium multiflorum; B 0.25 g a.i./mu) was 31.5% and the “Control effect (%)” value (Lolium multiflorum; B 0.5 g a.i./mu) was 44.3%.

In the case of CC(C)c1nn(C(=O)NC(C)(C)C)c(=O)n1N [amicarbazone], the “Control effect (%)” value (Echinochloa crusgalli; B 4 g a.i./mu) is reported as 29.8% and the “Control effect (%)” value (Echinochloa crusgalli; B 8 g a.i./mu) is reported as 37.2%.

With CCCCCCCC(=O)Oc1c(Br)cc(C#N)cc1Br [bromoxynil octanoate] the “Control effect (%)” value (Amaranthus retroflexus; B 6 g a.i./mu) was 38.2% and the “Control effect (%)” value (Amaranthus retroflexus; B 12 g a.i./mu) was 49.5%.

Nc1c(Cl)c(F)nc(OCC(=O)O)c1Cl [fluroxypyr] was tested, and the “Control effect (%)” value (Galium aparine; B 4 g a.i./mu) was 29.4% and the “Control effect (%)” value (Galium aparine; B 8 g a.i./mu) was 46.1%.

In the case of CCC(=O)Nc1ccc(Cl)c(Cl)c1 [propanil], the “Control effect (%)” value ([1]; B 16 g a.i./mu) is reported as 16.8% and the “Control effect (%)” value ([1]; B 32 g a.i./mu) is reported as 31.2%.

For COc1c(Cl)ccc(-c2nc(C(=O)O)c(Cl)c(N)c2F)c1F [florpyrauxifen], the “Control effect (%)” value (Echinochloa crusgalli; B 0.5 g a.i./mu) was 22.5% and the “Control effect (%)” value (Echinochloa crusgalli; B 1 g a.i./mu) was 41.3%.

With COc1ncc(F)c2nc(S(=O)(=O)Nc3c(F)cccc3F)nn12 [florasulam] the “Control effect (%)” value (Galium aparine; B 0.1 g a.i./mu) was 31.5% and the “Control effect (%)” value (Galium aparine; B 0.2 g a.i./mu) was 44.1%.

Cc1nn(C)cc1C(=O)Oc1c(C(=O)c2ccc(C(F)(F)F)cc2S(C)(=O)=O)c(C)nn1C [bipyrazone] was tested, and the “Control effect (%)” value (Galium aparine; B 0.75 g a.i./mu) was 33.6% and the “Control effect (%)” value (Galium aparine; B 1.5 g a.i./mu) was 46.2%.

Cn1[nH]c(C2CC2)c(C(=O)c2ccc(C(F)(F)F)c(N3CCCCC3=O)c2Cl)c1=O [cypyrafluone] was tested, and the “Control effect (%)” value (Lolium multiflorum; B 3 g a.i./mu) was 26.7% and the “Control effect (%)” value (Lolium multiflorum; B 6 g a.i./mu) was 38.9%.
